This is an account of results in paper PMC10216478, “Development of a Non-Peptide Angiotensin II Type 1 Receptor Ligand by Structural Modification of Olmesartan as a Biased Agonist” (Biomedicines, 2023).

SMILES strings stand for the structures. Where a chain is given by its changes, count along the chain named.

What all share (conditions): competition with 125I-[Sar1,Ile8]Ang II, n = 3, mean ± standard error, read-out: Binding affinity (Kd)
In one assay the target is T1, AT1 N295A receptor (Rattus norvegicus, UniProt P25095, N295A).
T1 construct: expressed in transfected cells; host or cells: COS7
T1 sequence (P25095 1-359 N295A): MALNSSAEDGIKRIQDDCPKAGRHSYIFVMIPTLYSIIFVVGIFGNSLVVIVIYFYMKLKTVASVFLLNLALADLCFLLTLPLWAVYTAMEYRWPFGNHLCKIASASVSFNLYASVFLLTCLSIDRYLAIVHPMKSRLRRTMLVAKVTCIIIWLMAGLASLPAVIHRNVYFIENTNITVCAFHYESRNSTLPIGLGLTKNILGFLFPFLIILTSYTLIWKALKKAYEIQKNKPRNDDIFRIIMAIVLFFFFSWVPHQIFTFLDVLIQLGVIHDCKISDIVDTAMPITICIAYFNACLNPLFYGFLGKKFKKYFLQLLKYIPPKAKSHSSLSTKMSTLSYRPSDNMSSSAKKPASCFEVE
As to the kind of experiment: Competition binding study, 125I-[Sar1,Ile8]Ang II, AT1 N295A receptor. From the text:
(§1) We mutated four amino acids in transmembrane (TM) III, VI, and VII in the AT1 receptor (L112A, Q257A, Y292A, and N295A receptors). We determined the mutation sites of the AT1 receptor according to ARB, which produced olmesartan derivatives with different interactions and functions toward the AT1 receptor, as previously reported by Zhang et al., since the additional 4-hydroxybenzyl groups of R781253 and R794847 were predicted to extend to a sub-pocket on the bottom of the AT1 receptor ligand-binding pocket consisting of Leu^112 and Gln^257. In addition, since the biased ligand TRV027 induced changes near the NPxxY motif in TM domain 7 that are related to receptor activation, Tyr^292 and Asn^295 in the AT1 receptor were mutated.
(§2) The synthetic rat AT1 receptor gene, which was cloned in the shuttle expression vector pMT-2, was used for expression and mutagenesis, as described previously. COS7 cells (No. CRL-1651, ATCC, Manassas, VA, USA) were cultured in 10% fetal bovine serum (FBS) and penicillin- and streptomycin-supplemented Dulbecco’s modified Eagle’s essential medium (PS-DMEM) in 5% CO2 at 37 °C. In the experiments, cells were grown without a cell-growth supplement. To express the AT1 receptor protein, 10 µg of purified plasmid DNA per 10^7 cells was used in the transfection. Wild-type and mutated AT1 receptors were transiently transfected into cells using Lipofectamine 2000 liposomal reagent (Roche Applied Science, Penzberg, Germany). Cells were plated and grown and were 70–90% confluent at the time of transfection. We incubated plasmid DNA (10 µg)–lipid (10 µL) complexes for 5 min at room temperature and added and incubated the complexes with cells for 24 h. We then analyzed the parameters in transfected cells. Cell viability was >95% according to trypan blue exclusion analysis in the control experiments. Transfected cells that had been cultured for 48–72 h were harvested. Cell membranes were prepared using the nitrogen Parr bomb disruption or freeze–thaw methods.
(§3) The Kd (nM) values of receptor binding were determined with ^125I-[Sar^1, Ile^8]AngII-binding experiments under equilibrium conditions. Binding kinetics were determined following the methods described in the literature. We carried out binding by using ^125I-[Sar^1, Ile^8] AngII (2200 Ci/mmol) and an increasing concentration (10^−11–10^−5 M) of each unlabeled compound. Nonspecific binding of ^125I-[Sar^1, Ile^8] Ang II was determined in the presence of a high concentration (10^−6 M) of unlabeled [Sar^1, Ile^8]. Next, the incubation mixture was separated by vacuum filtration through Whatman GF/C glass filters (Disposable Filter Funnels Grade GF/C, GE Healthcare), and presoaked with 0.1% polyethylenimine. The filter was washed with 3 mL of ice-cold stop buffer (25 mM Tris–HCl, pH 7.4, 1 mM MgCl2). The radioactivity trapped on the filters was quantified using an automatic γ-counter. The percentage (%) of specific binding of ^125I-[Sar^1, Ile^8]Ang II was calculated using the following formula: 100 × (% total binding of ^125I-[Sar^1, Ile^8]Ang II—nonspecific binding of ^125I-[Sar^1, Ile^8]Ang II)/(% total binding of ^125I-[Sar^1, Ile^8]Ang II).

In a further assay the target is T2, AT1 L112A receptor (Rattus norvegicus, UniProt P25095, L112A).
T2 construct: expressed in transfected cells; host or cells: COS7
T2 sequence (P25095 1-359 L112A): T1 sequence (P25095 1-359 N295A) with L112A, A295N
Kind of assay: Competition binding study, 125I-[Sar1,Ile8]Ang II, AT1 L112A receptor.
From the text: as §1
(§4) The synthetic rat AT1 receptor gene, which was cloned in the shuttle expression vector pMT-2, was used for expression and mutagenesis, as described previously. COS7 cells (No. CRL-1651, ATCC, Manassas, VA, USA) were cultured in 10% fetal bovine serum (FBS) and penicillin- and streptomycin-supplemented Dulbecco’s modified Eagle’s essential medium (PS-DMEM) in 5% CO2 at 37 °C. In the experiments, cells were grown without a cell-growth supplement. To express the AT1 receptor protein, 10 µg of purified plasmid DNA per 10^7 cells was used in the transfection. […] We then analyzed the parameters in transfected cells. […]
(§5) The Kd (nM) values of receptor binding were determined with ^125I-[Sar^1, Ile^8]AngII-binding experiments under equilibrium conditions. Binding kinetics were determined following the methods described in the literature. […] Ang II was determined in the presence of a high concentration (10^−6 M) of unlabeled [Sar^1, Ile^8]. […] The radioactivity trapped on the filters was quantified using an automatic γ-counter. The percentage (%) of specific binding of ^125I-[Sar^1, Ile^8]Ang II was calculated using the following formula: 100 × (% total binding of ^125I-[Sar^1, Ile^8]Ang II—nonspecific binding of ^125I-[Sar^1, Ile^8]Ang II)/(% total binding of ^125I-[Sar^1, Ile^8]Ang II).

In a further assay the target is T3, AT1 Q257A receptor (Rattus norvegicus, UniProt P25095, Q257A).
T3 construct: expressed in transfected cells; host or cells: COS7
T3 sequence (P25095 1-359 Q257A): T1 sequence (P25095 1-359 N295A) with Q257A, A295N
As to the kind of experiment: Competition binding study, 125I-[Sar1,Ile8]Ang II, AT1 Q257A receptor.
From the text: as §1, §2, §3

The target of another assay is T4, AT1 wild-type receptor (Rattus norvegicus, UniProt P25095).
T4 construct: expressed in transfected cells; host or cells: COS7
T4 sequence (P25095 1-359): T1 sequence (P25095 1-359 N295A) with A295N
Kind of assay: Competition binding study, 125I-[Sar1,Ile8]Ang II, AT1 wild-type receptor. The protocol:
as §4, §5

The next assay addresses T5, AT1 Y292A receptor (Rattus norvegicus, UniProt P25095, Y292A).
T5 construct: expressed in transfected cells; host or cells: COS7
T5 sequence (P25095 1-359 Y292A): T1 sequence (P25095 1-359 N295A) with Y292A, A295N
As to the kind of experiment: Competition binding study, 125I-[Sar1,Ile8]Ang II, AT1 Y292A receptor.
From the text: as §1, §2, §3

By Kd is commonly meant a measure of binding affinity in units of concentration.

`CC[C@H](C)[C@H](NC(=O)[C@@H]1CCCN1C(=O)[C@H](Cc1c[nH]cn1)NC(=O)[C@@H](NC(=O)[C@H](Cc1ccc(O)cc1)NC(=O)[C@@H](NC(=O)[C@H](CCCN=C(N)N)NC(=O)CNC)C(C)C)[C@@H](C)CC)C(=O)O` [[Sar^1,Ile^8]Ang II, [Sar^1, Ile^8]Ang II, reference compound]: the Kd at AT1 N295A receptor came out at 7 ± 2 nM; at AT1 L112A receptor, 1.3 ± 0.3 nM; at AT1 Q257A receptor, 3.3 ± 1.5 nM; at AT1 wild-type receptor it was 0.8 ± 0.4 nM; at AT1 Y292A receptor, 2.1 ± 0.9 nM.
